The record followed here is ChEMBL document CHEMBL5346859, “Dual-target Janus kinase (JAK) inhibitors: Comprehensive review on the JAK-based strategies for treating solid or hematological malignancies and immune-related diseases” (Eur J Med Chem, 2022).

Each structure is given as a SMILES string.

The target in experiment [1] is T1, Tyrosine-protein kinase JAK2 (Homo sapiens, UniProt O60674). Briefly: Inhibition of recombinant human JAK2 (808 to end residues) using biotinylated TK substrate in presence of [33P]ATP.
Experiment [2] can be described thus: Inhibition of JAK/STAT signaling pathway in human CD4+ve Th cells assessed as inhibition of IL-2 stimulated STAT5 phosphorylation at Y694 residue preincubated for 1 hr followed by IL-2 stimulation and measured after 15 mins by flow cytometry analysis. It is filed as cell-based. A general note: In flow cytometry, cells or beads pass a laser one at a time.
In experiment [3] the target is Ribosomal protein S6 kinase alpha-3 (Homo sapiens, UniProt P51812). Briefly: Inhibition of RSK2 (unknown origin).
Experiment [4] is described as follows: Inhibition of JAK/STAT signaling pathway in human CD4+ve Th cells assessed as inhibition of IL-4 stimulated STAT6 phosphorylation at Y641 residue preincubated for 1 hr followed by IL-4 stimulation and measured after 15 mins by flow cytometry analysis. It is filed as cell-based.
Experiment [5] addresses Proto-oncogene tyrosine-protein kinase receptor Ret (Homo sapiens, UniProt P07949). Briefly: Inhibition of RET (unknown origin).
Experiment [6] is described as follows: Inhibition of JAK/STAT signaling pathway in human CD8-positive T cells assessed as inhibition of IL-2 stimulated STAT5 phosphorylation at Y694 residue preincubated for 1 hr followed by IL-2 stimulation and measured after 15 mins by flow cytometry analysis. Particulars: CD8-positive T cell. It is filed as cell-based.
The nature of experiment [7]: Inhibition of JAK/STAT signaling pathway in human CD14 positive monocytes assessed as inhibition of IL-6 stimulated STAT3 phosphorylation at Y705 residue preincubated for 1 hr followed by IL-6 stimulation and measured after 15 mins by flow cytometry analysis. It is filed as cell-based.
In experiment [8] the target is Serine/threonine-protein kinase MARK1 (Homo sapiens, UniProt Q9P0L2). As to the kind of experiment: Inhibition of MARK1 (unknown origin).
Experiment [9] in a line: Inhibition of JAK/STAT signaling pathway in human CD14 positive monocytes assessed as inhibition of GM-CSF stimulated STAT5 phosphorylation at Y694 residue preincubated for 1 hr followed by GM-CSF stimulation and measured after 15 mins by flow cytometry analysis. It is filed as cell-based.
Experiment [10] has as its target Serine/threonine-protein kinase MARK2 (Homo sapiens, UniProt Q7KZI7). As to the kind of experiment: Inhibition of PAR1B-a (unknown origin).
In experiment [11] the target is Macrophage colony-stimulating factor 1 receptor (Homo sapiens, UniProt P07333). As to the kind of experiment: Inhibition of FMS (unknown origin).
A short description of experiment [12]: Inhibition of JAK/STAT signaling pathway in human CD19 positive B cells assessed as inhibition of IL-4 stimulated STAT6 phosphorylation at Y641 residue preincubated for 1 hr followed by IL-4 stimulation and measured after 15 mins by flow cytometry analysis. As to conditions: CD19 positive B cell. It is filed as cell-based.
Experiment [13] has as its target Mitogen-activated protein kinase kinase kinase kinase 2 (Homo sapiens, UniProt Q12851). As to the kind of experiment: Inhibition of GCK (unknown origin).
Experiment [14] has as its target T2, Receptor-type tyrosine-protein kinase FLT3 (Homo sapiens, UniProt P36888).
T2 sequence (P36888 whole entry): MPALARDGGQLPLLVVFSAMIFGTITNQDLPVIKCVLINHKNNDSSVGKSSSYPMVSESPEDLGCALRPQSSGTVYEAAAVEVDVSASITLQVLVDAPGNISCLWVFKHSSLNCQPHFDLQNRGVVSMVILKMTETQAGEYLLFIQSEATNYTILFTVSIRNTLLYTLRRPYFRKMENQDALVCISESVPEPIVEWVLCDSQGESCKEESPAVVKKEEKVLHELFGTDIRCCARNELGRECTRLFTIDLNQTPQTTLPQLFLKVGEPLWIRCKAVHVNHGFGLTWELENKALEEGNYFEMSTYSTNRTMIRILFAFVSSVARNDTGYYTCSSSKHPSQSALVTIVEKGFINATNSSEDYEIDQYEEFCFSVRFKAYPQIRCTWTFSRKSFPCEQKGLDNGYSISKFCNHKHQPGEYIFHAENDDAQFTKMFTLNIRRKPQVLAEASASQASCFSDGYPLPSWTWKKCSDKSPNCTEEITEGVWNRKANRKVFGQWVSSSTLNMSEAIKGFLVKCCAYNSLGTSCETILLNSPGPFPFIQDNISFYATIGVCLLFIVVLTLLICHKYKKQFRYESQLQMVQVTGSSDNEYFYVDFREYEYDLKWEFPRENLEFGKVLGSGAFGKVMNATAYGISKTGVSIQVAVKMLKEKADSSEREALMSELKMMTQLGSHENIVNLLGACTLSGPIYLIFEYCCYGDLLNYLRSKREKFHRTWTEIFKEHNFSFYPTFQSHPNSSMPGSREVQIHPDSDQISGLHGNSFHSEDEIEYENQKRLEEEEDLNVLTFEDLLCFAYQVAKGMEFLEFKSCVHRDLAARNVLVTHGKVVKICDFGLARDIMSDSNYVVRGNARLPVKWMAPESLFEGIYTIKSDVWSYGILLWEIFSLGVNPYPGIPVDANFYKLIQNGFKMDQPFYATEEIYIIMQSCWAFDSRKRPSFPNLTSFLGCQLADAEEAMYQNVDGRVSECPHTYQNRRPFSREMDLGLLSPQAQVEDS

For experiment [15], the target named is Serine/threonine-protein kinase 3 (Homo sapiens, UniProt Q13188). Briefly: Inhibition of MST2 (unknown origin).
Experiment [16] in a line: Cytotoxicity against human CLL cells assessed inhibition of cell growth incubated for 72 hrs by propidium iodide staining based flow cytometry analysis. It is filed as functional.
In experiment [17] the target is Tyrosine-protein kinase ITK/TSK (Homo sapiens, UniProt Q08881). As to the kind of experiment: Inhibition of ITK (unknown origin).
Experiment [18] in a line: Inhibition of JAK/STAT signaling pathway in human CD8-positive T cells assessed as inhibition of IL-4 stimulated STAT6 phosphorylation at Y641 residue preincubated for 1 hr followed by IL-4 stimulation and measured after 15 mins by flow cytometry analysis. It is filed as cell-based. Particulars: CD8-positive T cell.
A short description of experiment [19]: Inhibition of JAK/STAT signaling pathway in human CD14 positive monocytes assessed as inhibition of IL-4 stimulated STAT6 phosphorylation at Y641 residue preincubated for 1 hr followed by IL-4 stimulation and measured after 15 mins by flow cytometry analysis. It is filed as cell-based.
The target of experiment [20] is Vascular endothelial growth factor receptor 3 (Homo sapiens, UniProt P35916). As to the kind of experiment: Inhibition of FLT4 (unknown origin).
In experiment [21] the target is Serine/threonine-protein kinase Chk1 (Homo sapiens, UniProt O14757). Briefly: Inhibition of CHK1 (unknown origin).
In experiment [22] the target is Mitogen-activated protein kinase kinase kinase 9 (Homo sapiens, UniProt P80192). Briefly: Inhibition of MLK1 (unknown origin).
In experiment [23] the target is Ribosomal protein S6 kinase alpha-6 (Homo sapiens, UniProt Q9UK32). As to the kind of experiment: Inhibition of RSK4 (unknown origin).
Experiment [24] addresses Non-receptor tyrosine-protein kinase TYK2 (Homo sapiens, UniProt P29597). As to the kind of experiment: Inhibition of TYK2 (unknown origin) by flow cytometry analysis.
Experiment [25] deals with Tyrosine-protein kinase JAK3 (Homo sapiens, UniProt P52333). Briefly: Inhibition of JAK3 (unknown origin) by flow cytometry analysis.
The target in experiment [26] is Tyrosine-protein kinase SYK (Homo sapiens, UniProt P43405). As to the kind of experiment: Inhibition of SYK (unknown origin) by flow cytometry analysis.
Experiment [27] has as its target Tyrosine-protein kinase JAK1 (Homo sapiens, UniProt P23458). Briefly: Inhibition of JAK1 (unknown origin) by flow cytometry analysis.
The target in experiment [28] is T1, Tyrosine-protein kinase JAK2. As to the kind of experiment: Inhibition of JAK2 (unknown origin) by flow cytometry analysis.
Experiment [29] has as its system BaF3. Briefly: Antitumor activity against mouse BaF3 cells harboring JAK2 V617F mutant implanted in BALB/c mouse model assessed as normalization rate of liver weight at 150 mg/kg, po qd administered from day 4 post infection and measured after 14 days relative to control. It is filed as functional. Particulars: time 10 day.
For another experiment, the system named is MOLM-13. As to the kind of experiment: Antitumor activity against human MOLM-13 cells xenografted mouse model assessed as tumor growth inhibition at 150 mg/kg administered for 7 days relative to control. It is filed as functional. Particulars: MOLM-13, 168 h, time 7 day, read-out: TGI. (In general: Xenograft models place foreign cells or tissue in a host animal.)

Experiment [30] concerns BaF3. Briefly: Antitumor activity against mouse BaF3 cells harboring JAK2 V617F mutant implanted in BALB/c mouse model assessed as normalization rate of spleen weight at 150 mg/kg, po qd administered from day 4 post infection and measured after 14 days relative to control. It is filed as functional. As to conditions: time 10 day.
Experiment [31] has as its target Tyrosine-protein kinase Tec (Homo sapiens, UniProt P42680). As to the kind of experiment: Inhibition of TEC (unknown origin) in presence of ATP.
The subject of another experiment is MV4-11. As to the kind of experiment: Antitumor activity against human MV4-11 cells harboring FLT3 […] mutant xenografted acute myeloid leukemia BALB/c mouse model assessed as tumor growth inhibition at 40 mg/kg, po qd administered daily for 21 days relative to control. It is filed as functional. Particulars: MV4-11, 504 h, time 21 day, read-out: TGI.

T1 sequence (O60674 whole entry): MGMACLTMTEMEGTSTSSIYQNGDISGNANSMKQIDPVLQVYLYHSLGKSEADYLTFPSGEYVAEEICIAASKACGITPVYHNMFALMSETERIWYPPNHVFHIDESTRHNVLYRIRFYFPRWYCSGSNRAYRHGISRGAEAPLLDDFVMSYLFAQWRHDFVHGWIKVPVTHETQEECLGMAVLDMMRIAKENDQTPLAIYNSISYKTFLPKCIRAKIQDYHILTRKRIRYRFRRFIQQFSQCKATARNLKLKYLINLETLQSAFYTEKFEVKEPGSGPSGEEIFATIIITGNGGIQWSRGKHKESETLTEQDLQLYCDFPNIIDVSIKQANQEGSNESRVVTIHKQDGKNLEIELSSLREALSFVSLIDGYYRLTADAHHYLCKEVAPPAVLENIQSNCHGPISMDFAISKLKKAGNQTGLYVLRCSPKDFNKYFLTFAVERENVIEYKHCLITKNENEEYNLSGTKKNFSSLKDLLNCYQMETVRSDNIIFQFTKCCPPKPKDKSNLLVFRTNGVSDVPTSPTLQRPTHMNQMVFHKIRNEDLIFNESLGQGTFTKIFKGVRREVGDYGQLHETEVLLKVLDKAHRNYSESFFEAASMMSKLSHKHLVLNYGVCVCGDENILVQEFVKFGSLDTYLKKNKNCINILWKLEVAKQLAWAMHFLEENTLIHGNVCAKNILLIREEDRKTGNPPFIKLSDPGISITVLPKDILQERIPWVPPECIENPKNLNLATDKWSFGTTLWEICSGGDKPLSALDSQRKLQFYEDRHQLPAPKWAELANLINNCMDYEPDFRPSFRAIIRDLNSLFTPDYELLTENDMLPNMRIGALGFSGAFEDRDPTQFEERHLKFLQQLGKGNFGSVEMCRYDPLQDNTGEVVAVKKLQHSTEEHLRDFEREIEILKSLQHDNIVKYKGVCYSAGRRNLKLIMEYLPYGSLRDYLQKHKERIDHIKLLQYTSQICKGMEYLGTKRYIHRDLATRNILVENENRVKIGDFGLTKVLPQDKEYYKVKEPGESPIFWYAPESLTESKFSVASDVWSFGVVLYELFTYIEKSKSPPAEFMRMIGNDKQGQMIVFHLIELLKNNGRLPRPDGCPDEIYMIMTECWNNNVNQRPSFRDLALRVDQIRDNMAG
Chain of Ribosomal protein S6 kinase alpha-3 (P51812 whole entry): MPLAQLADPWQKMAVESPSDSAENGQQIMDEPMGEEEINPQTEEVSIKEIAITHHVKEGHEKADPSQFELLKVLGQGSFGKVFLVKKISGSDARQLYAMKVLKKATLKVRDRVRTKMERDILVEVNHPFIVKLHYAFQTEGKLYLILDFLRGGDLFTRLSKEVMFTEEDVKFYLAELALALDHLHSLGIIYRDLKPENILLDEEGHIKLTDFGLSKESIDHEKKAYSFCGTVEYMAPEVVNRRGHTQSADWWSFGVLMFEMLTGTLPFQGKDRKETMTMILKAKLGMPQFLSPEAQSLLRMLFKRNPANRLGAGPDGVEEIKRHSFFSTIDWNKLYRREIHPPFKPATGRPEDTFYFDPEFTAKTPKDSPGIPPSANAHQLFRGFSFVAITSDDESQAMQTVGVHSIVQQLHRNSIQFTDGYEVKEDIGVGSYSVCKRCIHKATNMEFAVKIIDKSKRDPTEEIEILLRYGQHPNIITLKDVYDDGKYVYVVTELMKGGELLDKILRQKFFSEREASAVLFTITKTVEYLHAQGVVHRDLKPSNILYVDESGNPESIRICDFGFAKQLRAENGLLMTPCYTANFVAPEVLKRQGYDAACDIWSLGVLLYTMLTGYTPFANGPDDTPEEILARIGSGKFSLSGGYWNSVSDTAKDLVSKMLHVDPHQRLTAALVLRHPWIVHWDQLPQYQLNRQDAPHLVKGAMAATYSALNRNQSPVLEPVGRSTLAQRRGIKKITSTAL
Chain of Tyrosine-protein kinase ITK/TSK (Q08881 whole entry): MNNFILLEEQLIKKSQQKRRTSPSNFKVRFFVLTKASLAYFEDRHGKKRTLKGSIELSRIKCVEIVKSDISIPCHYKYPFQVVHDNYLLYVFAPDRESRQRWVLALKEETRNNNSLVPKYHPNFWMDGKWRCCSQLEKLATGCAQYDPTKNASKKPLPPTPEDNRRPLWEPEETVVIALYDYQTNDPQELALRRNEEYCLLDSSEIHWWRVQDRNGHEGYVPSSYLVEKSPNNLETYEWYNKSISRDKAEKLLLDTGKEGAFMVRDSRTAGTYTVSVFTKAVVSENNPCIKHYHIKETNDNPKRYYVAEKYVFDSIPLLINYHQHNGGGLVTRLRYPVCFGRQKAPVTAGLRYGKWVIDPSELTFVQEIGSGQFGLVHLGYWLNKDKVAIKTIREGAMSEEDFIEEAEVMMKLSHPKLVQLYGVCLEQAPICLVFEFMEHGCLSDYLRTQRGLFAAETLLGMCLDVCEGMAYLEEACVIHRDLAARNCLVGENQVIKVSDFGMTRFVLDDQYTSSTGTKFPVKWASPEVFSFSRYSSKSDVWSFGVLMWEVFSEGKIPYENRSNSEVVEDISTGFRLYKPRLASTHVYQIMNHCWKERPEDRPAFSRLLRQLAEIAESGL
Chain of Macrophage colony-stimulating factor 1 receptor (P07333 whole entry): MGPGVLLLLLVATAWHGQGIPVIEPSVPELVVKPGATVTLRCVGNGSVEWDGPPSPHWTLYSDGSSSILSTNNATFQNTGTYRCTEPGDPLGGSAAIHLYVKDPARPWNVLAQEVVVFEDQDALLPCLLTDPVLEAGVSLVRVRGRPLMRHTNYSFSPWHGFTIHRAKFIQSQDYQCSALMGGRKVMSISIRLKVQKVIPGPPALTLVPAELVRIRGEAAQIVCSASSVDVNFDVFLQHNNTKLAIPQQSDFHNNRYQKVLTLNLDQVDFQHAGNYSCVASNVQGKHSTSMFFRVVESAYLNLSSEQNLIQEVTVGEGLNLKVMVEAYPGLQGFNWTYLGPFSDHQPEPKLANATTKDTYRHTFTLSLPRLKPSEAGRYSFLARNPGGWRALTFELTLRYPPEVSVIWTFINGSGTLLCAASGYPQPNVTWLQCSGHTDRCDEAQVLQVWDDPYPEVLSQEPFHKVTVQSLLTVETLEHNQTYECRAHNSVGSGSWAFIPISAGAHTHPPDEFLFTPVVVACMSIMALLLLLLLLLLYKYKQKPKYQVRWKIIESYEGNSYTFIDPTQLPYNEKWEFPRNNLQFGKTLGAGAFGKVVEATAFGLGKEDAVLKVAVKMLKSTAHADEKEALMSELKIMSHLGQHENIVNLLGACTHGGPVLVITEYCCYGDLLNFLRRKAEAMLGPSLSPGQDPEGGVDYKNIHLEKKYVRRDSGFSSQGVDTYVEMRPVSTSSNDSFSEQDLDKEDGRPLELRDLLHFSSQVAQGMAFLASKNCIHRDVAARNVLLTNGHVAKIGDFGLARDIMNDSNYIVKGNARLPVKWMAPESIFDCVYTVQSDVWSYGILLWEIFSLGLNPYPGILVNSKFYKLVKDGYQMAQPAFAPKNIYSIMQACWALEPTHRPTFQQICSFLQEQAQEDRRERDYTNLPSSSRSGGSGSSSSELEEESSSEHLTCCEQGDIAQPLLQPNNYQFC
Chain of Proto-oncogene tyrosine-protein kinase receptor Ret (P07949 whole entry): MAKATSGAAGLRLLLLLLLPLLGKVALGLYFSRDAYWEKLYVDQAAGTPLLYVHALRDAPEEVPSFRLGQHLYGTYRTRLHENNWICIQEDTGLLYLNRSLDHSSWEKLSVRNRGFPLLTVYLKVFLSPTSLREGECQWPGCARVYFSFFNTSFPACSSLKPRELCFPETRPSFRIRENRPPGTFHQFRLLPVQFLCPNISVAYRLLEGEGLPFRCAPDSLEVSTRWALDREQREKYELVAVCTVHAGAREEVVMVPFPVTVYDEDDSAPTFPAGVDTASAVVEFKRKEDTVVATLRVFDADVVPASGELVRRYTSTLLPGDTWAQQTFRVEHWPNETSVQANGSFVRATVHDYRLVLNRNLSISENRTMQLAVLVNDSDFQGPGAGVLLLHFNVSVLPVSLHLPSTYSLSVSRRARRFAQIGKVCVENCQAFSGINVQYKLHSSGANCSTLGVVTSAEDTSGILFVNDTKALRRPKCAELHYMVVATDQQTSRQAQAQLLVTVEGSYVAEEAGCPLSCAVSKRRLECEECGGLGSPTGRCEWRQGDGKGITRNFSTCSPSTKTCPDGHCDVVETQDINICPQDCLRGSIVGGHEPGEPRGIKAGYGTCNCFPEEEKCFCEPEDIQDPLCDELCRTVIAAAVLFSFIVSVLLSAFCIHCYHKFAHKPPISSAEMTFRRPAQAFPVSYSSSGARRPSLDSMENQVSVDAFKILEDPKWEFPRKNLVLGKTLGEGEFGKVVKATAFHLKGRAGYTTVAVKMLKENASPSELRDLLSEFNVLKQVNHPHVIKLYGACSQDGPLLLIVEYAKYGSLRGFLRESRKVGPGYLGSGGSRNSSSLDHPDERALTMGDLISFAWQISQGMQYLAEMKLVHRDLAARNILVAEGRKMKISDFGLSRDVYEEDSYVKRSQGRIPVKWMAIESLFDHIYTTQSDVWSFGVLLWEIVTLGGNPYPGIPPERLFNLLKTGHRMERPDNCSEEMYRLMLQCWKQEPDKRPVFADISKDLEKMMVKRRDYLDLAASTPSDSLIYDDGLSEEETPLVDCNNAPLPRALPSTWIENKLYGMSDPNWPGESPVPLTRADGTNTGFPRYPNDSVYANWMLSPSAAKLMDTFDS
Chain of Serine/threonine-protein kinase 3 (Q13188 whole entry): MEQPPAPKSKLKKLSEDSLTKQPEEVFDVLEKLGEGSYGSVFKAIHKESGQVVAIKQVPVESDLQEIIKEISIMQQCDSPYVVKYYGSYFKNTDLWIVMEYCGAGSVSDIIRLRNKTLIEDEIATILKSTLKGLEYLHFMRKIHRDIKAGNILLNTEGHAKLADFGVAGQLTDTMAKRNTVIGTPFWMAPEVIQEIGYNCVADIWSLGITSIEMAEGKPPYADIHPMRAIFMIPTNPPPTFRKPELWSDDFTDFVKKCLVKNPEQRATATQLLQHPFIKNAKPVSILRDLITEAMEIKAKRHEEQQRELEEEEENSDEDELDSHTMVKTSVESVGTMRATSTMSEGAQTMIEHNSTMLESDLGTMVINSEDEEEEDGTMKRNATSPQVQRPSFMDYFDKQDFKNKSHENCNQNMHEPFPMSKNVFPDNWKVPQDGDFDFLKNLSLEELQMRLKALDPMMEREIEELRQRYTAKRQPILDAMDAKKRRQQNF

Regarding `C[C@H]1CC(C(=O)CC#N)[C@]12CCN(c1ncnc3[nH]ccc13)C2` (stereo partly drawn), in [1], the IC50 (as a rule, the concentration that inhibits the measured activity by half) was found to be 2.6 nM.
As for `CCS(=O)(=O)N1CCN(c2ccc(Nc3ncc(C(N)=O)c(NC4CC4)n3)cc2)CC1` [CERDULATINIB], the IC50 in [2] is less than 1000 nM; in experiment [3], 4 nM; in experiment [4], less than 1000 nM; in experiment [5], 4 nM; in experiment [6] it was less than 1000 nM; in experiment [7], less than 1000 nM. Further, the IC50 in experiment [8] is 4 nM; in experiment [9], more than 4000 nM; in experiment [10], 4 nM; in experiment [11] it was 4 nM; in experiment [12], less than 1000 nM; in experiment [13] it was 4 nM. The IC50 in experiment [14] was 4 nM; in experiment [15], 4 nM; in experiment [16] it was 370 nM; in experiment [17], 4 nM; in experiment [18] it was less than 1000 nM; in [19], less than 1000 nM. Moreover, the IC50 in experiment [20], in [21], in [22] and in experiment [23] was 4 nM throughout.
On to `N#CCC1CCN(c2nc(Nc3ccc(N4CCC(O)CC4)cc3)c3c(=O)[nH]ncc3n2)CC1` [GUSACITINIB], for which the IC50 in experiment [24] was determined as 8 nM; in [25], 11 nM; in [26] it was 5 nM; in [27] it was 46 nM; in experiment [28], 4 nM.
For `C1=N/C2=N/c3ccc(OCCN4CCCC4)c(c3)COC/C=C/COCc3cccc(c3)C(=C1)N2` [PACRITINIB], the Activity in the experiment with BaF3 [29] is on record as 99%; with BaF3 [30], 42%. Besides, in the experiment on MOLM-13, the inhibition in vivo at 150 mg/kg was 83%.
In the case of `C=CC(=O)N1C[C@H](Nc2ncnc3[nH]ccc23)CC[C@@H]1C` [RITLECITINIB], the 50% inhibitory concentration (IC50) in experiment [31] came out at 155 nM.
On to `CN1C/C=C/CCOc2cccc(c2)-c2ccnc(n2)Nc2cccc(c2)C1` [ZOTIRACICLIB], for which the inhibition in vivo at 40 mg/kg in the experiment on MV4-11 is 113%.
